ChEMBL document CHEMBL1157539, “Thousands of chemical starting points for antimalarial lead identification” (Nature, 2010)

System: Plasmodium falciparum
Assay: GSK_TCMDC: Inhibition of Plasmodium falciparum 3D7 in whole erythrocytes, using parasite LDH activity as an index of growth.
Format: functional, organism-based
Details: Plasmodium falciparum, 3D7

Row | Structure (SMILES) | XC50
1 | COC(=O)CCCCOc1c(OC)cc(Cc2cnc(N)nc2N)cc1OC | 39.3 nM
2 | Cc1nc(O)c2c(ccc3ccc(CNc4ccc(C(=O)N[C@@H](CCC(=O)O)C(=O)O)cc4)cc32)n1 | 177 nM
3 | O=C(/C=C/c1ccc(Cl)c(Cl)c1)NCCCCCN1CCCN(C(=O)Nc2ccc(Cl)cc2)CC1 | 735 nM
4 | CCCCn1c(Sc2ccc(C#N)c([N+](=O)[O-])c2)nnc1-c1ccc(OC)cc1 | 1030 nM
5 | CCCc1cc(Cc2cnc(N)nc2N)cc(OC)c1OC | 988 nM
6 | Cc1cc(C)nc(-n2[nH]c(C)c(Cc3ccc(C(C)(C)C)cc3)c2=O)n1 | 1010 nM
7 | CS(=O)(=O)CCNCc1cc(-c2cc3ncnc(Nc4ccc(OCc5cccc(F)c5)c(Cl)c4)c3s2)cs1 | 326 nM
8 | FC(F)(F)c1cc(Nc2ccc(Oc3ccccc3)cc2)c2cc(-c3ccncc3)ccc2n1 | 454 nM
9 | O=[N+]([O-])c1ccc(C=NNc2nc(Nc3ccccc3)nc(Nc3ccccc3)n2)o1 | 837 nM
10 | CCCN(CCC)C(=O)c1cc(C(=O)N[C@@H](Cc2ccccc2)[C@H](O)CNCc2cccc(C(F)(F)F)c2)cc(N2CCCCS2(=O)=O)c1 | 876 nM
11 | CC(C)C(C(=O)Nc1ccc(S(=O)(=O)N(C)C)cc1)c1ccc(Cl)cc1 (stereo not drawn) | 937 nM
12 | Cc1c(C2CCN(CCCCNC(=O)c3ccc(-c4ccc(C#N)cc4)cc3)CC2)c2ccccc2n1CCO | 995 nM
13 | CCNC(=O)Nc1ccc(N(C)c2ccnc(Nc3ccc(CS(C)(=O)=O)cc3)n2)cc1 | 88.8 nM
14 | CCOc1ccc(-c2nonc2NC(=O)c2ccc(F)cc2)cc1OCC | 327 nM
15 | CC(=O)c1c(Nc2c(C)cc(C)cc2C)oc(C)cc1=O | 481 nM
16 | NC1CCN(Cc2ccc(-c3ccc(-c4nc5cc(F)ccc5[nH]4)s3)cc2)C1 (stereo not drawn) | 646 nM
17 | O=C(N[C@@H](Cc1ccccc1)[C@H](O)CNC1CCCc2ccccc21)c1cc(C2CCCC2)cc(N2CCCC2=O)c1 (stereo partly drawn) | 162 nM
18 | Cc1c(S(=O)(=O)Nc2cccc(CCN3CCCCC3CCN3CCCC3)c2)sc2ccc(Cl)cc12 (stereo not drawn) | 925 nM
19 | CCc1nc2c(cnn2CC)c(NC2CCOCC2)c1CNC(=O)c1ccoc1C | 886 nM
20 | O=C(Nc1cccc(-c2cccc(-c3nc4ccccc4[nH]3)c2)c1)c1ccncc1 | 479 nM
21 | COc1cccc(Nc2nc(C)cc(Nc3cccc(C#N)c3)n2)c1 | 1080 nM
22 | CCNc1cc(C(=O)N[C@@H](Cc2ccccc2)[C@H](O)CNCCc2cccc3ccccc23)cc(N2CCCC2=O)c1 | 982 nM
23 | CN1CCC(NCc2ccc(S(=O)(=O)Nc3ccc(Oc4cccc(Cl)c4)cc3)cc2)CC1 | 735 nM
24 | c1ccc(-c2cc(NCCCCNc3cc(-c4ccccc4)nc4ccccc34)c3ccccc3n2)cc1 | 133 nM
25 | Cc1ccccc1C1CCN(C2CCC(NC(=O)/C=C/c3c(F)ccc(F)c3F)CC2)CC1 (stereo not drawn) | 1260 nM

Row | Structure (SMILES) | XC50
26 | c1ccc(CN2CCC(NCc3ccccc3-c3ccc(CNCc4ccc5c(c4)OCO5)cc3)CC2)cc1 | 326 nM
27 | C[C@@H](COc1ccccc1)NCC(O)c1ccc([N+](=O)[O-])c(OCc2ccccc2)c1 (stereo partly drawn) | 994 nM
28 | O=C(Cn1c2ccccc2c(=O)c2ccc(Cl)cc21)Nc1ccc(C(F)(F)F)cc1 | 530 nM
29 | CN(Cc1cccc(O)c1)C1CCN(c2cc(NC(=O)c3ccc(F)cc3)ccn2)CC1 | 956 nM
30 | CN(C)Cc1ccc2cc(NC(=O)c3ccc(-c4ccc(Cl)cc4)cc3)ccc2n1 | 849 nM
31 | Nc1nc2c(ncn2COC(COCc2ccccc2)COCc2ccccc2)c(=O)[nH]1.Nc1nc2ncn(COC(COCc3ccccc3)COCc3ccccc3)c2c(=O)[nH]1 | 714 nM
32 | CCCCc1cc(=O)oc2cc(C)cc(OCc3ccccc3F)c12 | 1030 nM
33 | COc1ccc(CNc2ccc3nc(N)nc(N)c3c2)cc1 | 172 nM
34 | COc1ccc2nccc([C@@H](O)CN3CCC(NCc4ccc5c(c4)oc(=S)n5C)CC3)c2c1 | 187 nM
35 | COc1ccc2nccc(N(C)CC3(O)CCN(CCc4ccc5c(c4)OCCO5)CC3)c2n1 | 143 nM
36 | Cc1nc2nc(N)nc(N)c2c(C)c1Cc1ccccc1I | 351 nM
37 | CN(C)C1CCN(Cc2ccc(N3CCN(Cc4cccc5[nH]ccc45)CC3)nc2)CC1 | 1530 nM
38 | Cc1cccc2nc(-c3ccc(-c4ccc(NC(=O)Nc5cccc(C#N)c5)cc4)s3)[nH]c12 | 117 nM
39 | O=C(CCN(Cc1ccco1)c1nc(-c2ccc(F)cc2)nc2ccccc12)NC1CC1 | 1580 nM
40 | COc1ccc2nccc([C@@H](O)CN3CCC(NC(=O)C(c4cccs4)N4CCN(c5ccc(F)cc5)CC4)CC3)c2c1 (stereo partly drawn) | 817 nM
41 | O=C(Nc1cccc(CN2CCCN(Cc3ccc(O)cc3)CC2)c1)c1cccc(Cl)c1 | 908 nM
42 | CCOC(=O)c1ccc(N2CCCCC2)c(NC(=O)C(Cl)(Cl)Cl)c1 | 849 nM
43 | COc1cccc(-c2ccc(O)c(CNCCc3cccc(F)c3)c2)n1 | 914 nM
44 | COc1ccc2nccc(N(C)CC3(O)CCN(CC(O)c4ccc5c(c4)NC(=O)CS5)CC3)c2n1 (stereo not drawn) | 590 nM
45 | Cc1noc(-c2ccc3c(c2)CCN(CCC2CCC(NC(=O)/C=C/c4ccc(F)cc4)CC2)CC3)n1 (stereo not drawn) | 1030 nM
46 | Cc1cccc2nc(-c3cccc(-c4cccc(CNCC5CCCO5)c4)c3)[nH]c12 (stereo not drawn) | 602 nM
47 | COc1ccc2c(NN=Cc3ccc(N(C)C)cc3)ccnc2c1 | 663 nM
48 | O=C(Nc1cccc(CN2CCN(Cc3cccc(O)c3)CC2)c1)c1cc2ccccc2s1 | 1120 nM
49 | Cc1noc(C)c1-c1ccc2c(Nc3ccccc3N3CCOCC3)c(C(=O)NCc3ccccc3)cnc2c1 | 1180 nM
50 | CCCCCc1cc(OC(=O)CCCN(CC)CC)c2c(c1)OC(C)(C)C=C2C1=CCN(Cc2ccc3ccccc3c2)CC1 | 156 nM

Row | Structure (SMILES) | XC50
51 | O=c1c(Br)c(C(F)(F)F)[nH]c2ccc(Oc3ccccc3)cc12 | 1100 nM
52 | CCN(CC)CCNC(=O)/C(=C/C=C/c1cc2cc(Cl)c(Cl)cc2[nH]1)OC | 927 nM
53 | CN(Cc1cccc(F)c1)C1CCN(c2cc(NC(=O)c3ccc(F)cc3)ccn2)CC1 | 1160 nM
54 | Cc1noc(C)c1-c1ccc2c(Nc3ccccc3C(C)(C)C)c(C(=O)NCc3cccc4ccccc34)cnc2c1 | 941 nM
55 | CCCCCNc1nc(Nc2ccccc2C)nc2ccccc12 | 735 nM
56 | Cc1cc2nc(-c3ccc(C(=O)NC4CCN(Cc5ccccc5)CC4)s3)[nH]c2cc1C | 771 nM
57 | CCCCCc1cnc2nc(N)nc(N)c2c1C | 211 nM
58 | NC(=S)Cc1ccc2c(c1)OCO2 | 284 nM
59 | COc1ccc(Cn2c(Nc3cccc(C(F)(F)F)c3)nc3cc(C(=O)NC4CC4)cnc32)cc1Cl | 727 nM
60 | COc1cc(F)c2ncc(Cl)c(CCN3CCC(NCc4ccc5c(c4)OCCO5)CC3)c2c1 | 469 nM
61 | CN(C)CCN(C)Cc1cccc(-c2ccc3c(Nc4ccc(F)cc4Cl)ccnc3c2)c1 | 110 nM
62 | COc1cc(C=CC(=O)NC2CCC(CN3CCC(c4c[nH]c5ccccc45)CC3)CC2)cc(OC)c1 (stereo not drawn) | 807 nM
63 | CN1CCN(CCCN(Cc2csc(-c3ccc(CNCc4ccccc4)cc3)n2)C(=O)Nc2ccc3ccccc3c2)CC1 | 1100 nM
64 | CNC(=O)c1ccccc1Nc1nc(Nc2ccc(CCN3CCN(C)CC3)cc2)ncc1Cl | 651 nM
65 | Cc1[nH]c(C)c(-c2ccc(CCc3ccc(F)cc3F)cc2)c(=O)c1Cl | 15.9 nM
66 | CC(C)CC(=O)N(Cc1ccc(-c2ccc(CNC3Cc4ccccc4C3)cc2)cc1)C1CCNCC1 | 1170 nM
67 | CCc1nc2nc(C)cc(Nc3cc(C)cc(C)c3)n2n1 | 294 nM
68 | CC(C)C[C@@H](C(=O)N[C@@H](CCCCNC(=O)OCc1ccccc1)C(=O)Nc1nccs1)[C@H](C)N(O)C=O | 190 nM
69 | O=C(NC1CCC(N2CCC(O)(c3ccc(F)cc3)CC2)CC1)c1cc2ccccc2[nH]1 (stereo not drawn) | 736 nM
70 | CC(=O)Nc1ccc(C(=O)Nc2cccc(-c3cccc(-c4nc5cc(F)ccc5[nH]4)c3)c2)cn1 | 134 nM
71 | COc1ccc(Cl)cc1N1CCN(CCCNC(=O)c2ccc(-c3nc4cc(Cl)c(C)cc4[nH]3)s2)CC1 | 776 nM
72 | Cc1ccc(NC(=O)NCCCCCN2CCC(c3c[nH]c4ccccc34)CC2)cc1I | 815 nM
73 | COc1ccc(C=C2SC(=N)N(c3ccccc3OC)C2=O)cc1 | 300 nM
74 | Cc1cc(C(=O)CN2C(=O)NC3(CCOc4ccccc43)C2=O)c(C)n1Cc1ccc(F)cc1 (stereo not drawn) | 881 nM
75 | Brc1cc(Br)c2c(c1)C(NCCCNc1nc3ncccc3[nH]1)CCN2 (stereo not drawn) | 595 nM

Row | Structure (SMILES) | XC50
76 | C/C=C/C=C/C1=NCCc2cc(OCCC)ccc21 | 914 nM
77 | COc1ccc2ncc(F)c(CCN3CC(O)C(CNCc4ccc5c(n4)NC(=O)CS5)C3)c2c1 (stereo not drawn) | 784 nM
78 | Nc1nc(N)c2c(ccc3c2ccn3CCCC2CCCNC2)n1 (stereo not drawn) | 898 nM
79 | CN1CCCN(c2ccnc3cc4c(cc23)N(C(=O)c2ccc(Cl)cc2Cl)CC4)CC1 | 812 nM
80 | O=C(NCc1ccccc1)C1Cc2c([nH]c3ccc(Br)cc23)C2(CCN(Cc3ccccc3)CC2)N1 (stereo not drawn) | 873 nM
81 | Oc1cccc(C2CCCN(Cc3cccc4cc[nH]c34)C2)c1 (stereo not drawn) | 507 nM
82 | Cc1cc(OCc2ccccc2)c(OCc2ccccc2)cc1C(O)CN(C)Cc1ccccc1 (stereo not drawn) | 809 nM
83 | CCCc1cc(Cc2cnc(N)nc2N)cc(CCC)c1O | 277 nM
84 | FC(F)(F)c1ccccc1OCc1cc(-c2ccncc2)c(COc2ccccc2C(F)(F)F)cc1C1=CCNCC1 | 890 nM
85 | COc1ccc(NC(=O)c2cc(NC(=O)C3(N)CC3)c(=O)n(Cc3ccc(C(N)=O)cc3)c2)cc1 | 792 nM
86 | Cc1cc(=O)c(-c2ccc(Oc3ccc(C(F)(F)F)cc3)cc2)c(C)n1O | 604 nM
87 | CN(C)CCCOc1ccc(CN2CC[C@H](NC(=O)c3ccc(Cl)c(Cl)c3)C2)cc1Br | 763 nM
88 | Cc1ccc2[nH]c(C)cc(=NN=Cc3cccc(Cl)c3)c2c1 | 739 nM
89 | Cc1cc(Nc2ccc3c(c2)CCC3)n2ncnc2n1 | 967 nM
90 | Cc1cccc2nc(-c3ccc(-c4ccc(CN5CCCCC5)cc4)s3)[nH]c12 | 521 nM
91 | NC(=O)c1cccc(C(=O)Nc2cccc(-c3csc(-c4nc5ccccc5[nH]4)c3)c2)c1 | 133 nM
92 | Oc1ccccc1CNCC12CC3CC(CC(C3)C1)C2 | 279 nM
93 | COc1ccc(-c2cncc3ccc(C(=O)NCc4ccncc4)nc23)cc1 | 736 nM
94 | COc1cc(CNc2ncc(-c3ccsc3)c(-c3nccs3)n2)cc(OC)c1 | 126 nM
95 | Cc1cc(N2CCCC2)nc(Nc2ccc(NC(=O)Nc3ccccc3)cc2)n1 | 165 nM
96 | CC[C@H]1CN2CC[C@H]1C[C@H]2[C@H](O)c1cc(-c2cccc(F)c2)nc2ccc(OC)cc12 | 58.2 nM
97 | Clc1ccc(CNc2ccnc(NCCc3coc4ccccc34)n2)c(Cl)c1 | 1170 nM
98 | COc1ccc(Cn2ccc3c4c(N)nc(N)nc4ccc32)cc1 | 3.2 nM
